Consider 1 compound from patent US20040058989A1, “Pharmaceutical composition containing citalopram” (H. Lundbeck A/S, priority 2001, published 2004).

A short description of this series: Particle size distribution by laser diffraction (Sympatec Helos). The class given is physicochemical. On the procedure:
As used herein, “particle size distribution” means the distribution of equivalent spherical diameters as determined by laser diffraction in a Sympatec Helos equipment. The particle size distributions for fillers and uncompacted citalopram are determined at 1 bar dispersive pressure, whereas the particle size distributions for compacted granulates are determined at 0.2 bar dispersive pressure in order to avoid deaggregation of the granules leading to erroneous results. “Median particle size”, correspondingly, means the median of said particle size distribution.

Where [1] appears, read: Sympatec Helos, 1 bar dispersive pressure for fillers and uncompacted citalopram, 0.2 bar for compacted granulates.

As for `CN(C)CCCC1(c2ccc(F)cc2)OCc2cc(C#N)ccc21` (centres unmarked) [Citalopram HBr], under setting [1], the “Particle size distribution, quantile 10%” value is given as 1.2 μm; the “Particle size distribution, quantile 50% (median particle size)” value was found to be 14.0 μm; the “Particle size distribution, quantile 90%” value is recorded as 72.3 μm; the “Particle size distribution, quantile 95%” value was 97.0 μm. The Particle size (product of the process used for preparation of citalopram hydrobromide, general statement) is 2-20 μm.
